Test results from paper PMC5814754, “Quantitative, Wide-Spectrum Kinase Profiling in Live Cells for Assessing the Effect of Cellular ATP on Target Engagement” (Cell Chemical Biology, 2018).
Like-named read-outs stand apart in the source and are kept apart here.

How the values were obtained:
Assay in all cases: NanoBRET single-dose fractional occupancy profiling of kinase/Nluc library in live HEK293 cells (Table S1)
Assay type in all cases: binding
Parameters in all cases: receptor occupancy: dose or concentration left out as unconfirmed; Occupancy, % Replicate 1 / Occupancy, % Replicate 2: unit of the concentration uncertain
178 full-length kinases [1] = target: 178 full-length kinases (Homo sapiens, UniProt O76039); details: CDKL5, Nluc N, probe 5 at 1 (unit uncertain)
Sequence of 178 full-length kinases (Homo sapiens, UniProt O76039) (O76039 whole entry): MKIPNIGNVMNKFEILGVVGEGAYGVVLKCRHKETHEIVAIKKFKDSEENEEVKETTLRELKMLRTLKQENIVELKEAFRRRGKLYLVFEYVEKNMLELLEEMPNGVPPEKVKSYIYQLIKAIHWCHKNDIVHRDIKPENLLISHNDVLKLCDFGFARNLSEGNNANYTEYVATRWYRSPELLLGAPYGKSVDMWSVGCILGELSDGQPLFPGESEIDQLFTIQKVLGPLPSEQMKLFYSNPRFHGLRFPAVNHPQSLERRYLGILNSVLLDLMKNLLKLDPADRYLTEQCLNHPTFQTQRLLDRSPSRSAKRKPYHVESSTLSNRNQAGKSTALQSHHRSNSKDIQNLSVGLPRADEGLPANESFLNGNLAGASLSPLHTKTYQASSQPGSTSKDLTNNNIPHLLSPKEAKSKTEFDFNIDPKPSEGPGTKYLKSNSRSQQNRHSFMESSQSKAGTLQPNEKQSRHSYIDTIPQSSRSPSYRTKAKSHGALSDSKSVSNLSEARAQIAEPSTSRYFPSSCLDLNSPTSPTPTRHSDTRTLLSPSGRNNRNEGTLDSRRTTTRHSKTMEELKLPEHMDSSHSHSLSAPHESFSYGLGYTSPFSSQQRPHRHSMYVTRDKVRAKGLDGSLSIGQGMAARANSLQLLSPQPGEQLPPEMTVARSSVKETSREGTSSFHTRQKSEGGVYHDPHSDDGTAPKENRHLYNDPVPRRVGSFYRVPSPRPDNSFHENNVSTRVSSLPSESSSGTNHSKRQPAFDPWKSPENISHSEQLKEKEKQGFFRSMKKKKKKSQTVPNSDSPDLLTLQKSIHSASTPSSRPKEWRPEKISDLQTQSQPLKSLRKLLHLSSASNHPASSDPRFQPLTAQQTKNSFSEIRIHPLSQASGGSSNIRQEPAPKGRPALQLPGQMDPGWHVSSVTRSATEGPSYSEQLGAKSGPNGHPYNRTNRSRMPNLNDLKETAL

178 full-length kinases [2] = target: 178 full-length kinases (Homo sapiens, UniProt P07333); details: CSF1R, Nluc C, probe 6
Sequence of 178 full-length kinases (Homo sapiens, UniProt P07333) (P07333 20-972): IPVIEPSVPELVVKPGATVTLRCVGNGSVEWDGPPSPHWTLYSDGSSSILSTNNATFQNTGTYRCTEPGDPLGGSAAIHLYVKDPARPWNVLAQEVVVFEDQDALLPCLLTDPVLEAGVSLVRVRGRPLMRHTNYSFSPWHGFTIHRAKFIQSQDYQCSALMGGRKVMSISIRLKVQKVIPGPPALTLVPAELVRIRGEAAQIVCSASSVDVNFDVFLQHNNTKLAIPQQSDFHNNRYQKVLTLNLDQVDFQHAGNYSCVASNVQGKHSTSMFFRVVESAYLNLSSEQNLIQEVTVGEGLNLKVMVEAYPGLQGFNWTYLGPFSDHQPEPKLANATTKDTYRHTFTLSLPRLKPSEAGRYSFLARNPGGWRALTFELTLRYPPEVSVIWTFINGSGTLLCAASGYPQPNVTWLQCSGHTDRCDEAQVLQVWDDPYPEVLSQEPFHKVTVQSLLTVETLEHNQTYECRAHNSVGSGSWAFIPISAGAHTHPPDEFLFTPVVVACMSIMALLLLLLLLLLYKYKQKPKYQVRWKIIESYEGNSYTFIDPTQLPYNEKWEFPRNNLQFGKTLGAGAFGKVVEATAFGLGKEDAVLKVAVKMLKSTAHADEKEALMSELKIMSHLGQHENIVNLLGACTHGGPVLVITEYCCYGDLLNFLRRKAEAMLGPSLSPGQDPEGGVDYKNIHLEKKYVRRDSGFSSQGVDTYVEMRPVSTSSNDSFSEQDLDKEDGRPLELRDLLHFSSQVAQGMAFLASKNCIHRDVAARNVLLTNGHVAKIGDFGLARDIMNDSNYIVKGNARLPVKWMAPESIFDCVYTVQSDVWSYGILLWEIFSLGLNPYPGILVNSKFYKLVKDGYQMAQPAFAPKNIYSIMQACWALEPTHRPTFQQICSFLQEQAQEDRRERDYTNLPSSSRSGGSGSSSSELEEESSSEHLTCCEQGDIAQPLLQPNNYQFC

178 full-length kinases [3] = target: 178 full-length kinases (Homo sapiens, UniProt P22455); details: FGFR4, Nluc C, probe 5 at 1 (unit uncertain)
178 full-length kinases [4] = target: 178 full-length kinases (Homo sapiens, UniProt P27037); details: ACVR2A, Nluc C, probe 2 at 1 (unit uncertain)
Sequence of 178 full-length kinases (Homo sapiens, UniProt P27037) (P27037 20-513): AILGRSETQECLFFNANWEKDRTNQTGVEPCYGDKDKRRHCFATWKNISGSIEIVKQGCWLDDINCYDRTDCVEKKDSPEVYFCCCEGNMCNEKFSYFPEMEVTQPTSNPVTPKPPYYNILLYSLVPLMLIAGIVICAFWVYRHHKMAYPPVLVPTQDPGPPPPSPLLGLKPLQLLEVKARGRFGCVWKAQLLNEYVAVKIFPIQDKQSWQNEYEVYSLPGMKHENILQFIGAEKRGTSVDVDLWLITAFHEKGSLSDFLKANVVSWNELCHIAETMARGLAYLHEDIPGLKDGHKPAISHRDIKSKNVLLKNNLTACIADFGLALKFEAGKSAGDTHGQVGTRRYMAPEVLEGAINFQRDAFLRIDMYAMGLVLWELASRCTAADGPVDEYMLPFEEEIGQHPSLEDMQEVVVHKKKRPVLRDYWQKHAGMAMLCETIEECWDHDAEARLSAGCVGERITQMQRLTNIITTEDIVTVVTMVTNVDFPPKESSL

178 full-length kinases [5] = target: 178 full-length kinases (Homo sapiens, UniProt P42685); details: FRK, Nluc C, probe 6 at 0.5 (unit uncertain)
178 full-length kinases [6] = target: 178 full-length kinases (Homo sapiens, UniProt P51817); details: PRKX, Nluc C, probe 5 at 1 (unit uncertain)
Sequence of 178 full-length kinases (Homo sapiens, UniProt P51817) (P51817 whole entry): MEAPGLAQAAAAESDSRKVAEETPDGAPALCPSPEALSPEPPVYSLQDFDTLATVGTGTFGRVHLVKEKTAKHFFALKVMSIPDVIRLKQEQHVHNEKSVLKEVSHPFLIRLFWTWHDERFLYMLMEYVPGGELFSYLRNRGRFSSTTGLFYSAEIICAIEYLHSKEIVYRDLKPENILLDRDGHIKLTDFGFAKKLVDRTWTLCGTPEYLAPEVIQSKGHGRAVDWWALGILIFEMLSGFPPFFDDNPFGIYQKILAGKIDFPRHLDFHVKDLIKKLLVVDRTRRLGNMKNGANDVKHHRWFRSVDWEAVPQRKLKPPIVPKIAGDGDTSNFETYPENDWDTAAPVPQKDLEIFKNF

178 full-length kinases [7] = target: 178 full-length kinases (Homo sapiens, UniProt P51955); details: NEK2, Nluc N, probe 5 at 1 (unit uncertain)
178 full-length kinases [8] = target: 178 full-length kinases (Homo sapiens, UniProt P52333); details: JAK3, Nluc C, probe 5 at 1 (unit uncertain)
178 full-length kinases [9] = target: 178 full-length kinases (Homo sapiens, UniProt P54646); details: PRKAA2, Nluc N, probe 5 at 0.5 (unit uncertain)
178 full-length kinases [10] = target: 178 full-length kinases (Homo sapiens, UniProt P57059); details: SIK1 (NP_001307572), Nluc orientation N, probe 6 at 0.1 (unit uncertain)
Sequence of 178 full-length kinases (Homo sapiens, UniProt P57059) (P57059 whole entry): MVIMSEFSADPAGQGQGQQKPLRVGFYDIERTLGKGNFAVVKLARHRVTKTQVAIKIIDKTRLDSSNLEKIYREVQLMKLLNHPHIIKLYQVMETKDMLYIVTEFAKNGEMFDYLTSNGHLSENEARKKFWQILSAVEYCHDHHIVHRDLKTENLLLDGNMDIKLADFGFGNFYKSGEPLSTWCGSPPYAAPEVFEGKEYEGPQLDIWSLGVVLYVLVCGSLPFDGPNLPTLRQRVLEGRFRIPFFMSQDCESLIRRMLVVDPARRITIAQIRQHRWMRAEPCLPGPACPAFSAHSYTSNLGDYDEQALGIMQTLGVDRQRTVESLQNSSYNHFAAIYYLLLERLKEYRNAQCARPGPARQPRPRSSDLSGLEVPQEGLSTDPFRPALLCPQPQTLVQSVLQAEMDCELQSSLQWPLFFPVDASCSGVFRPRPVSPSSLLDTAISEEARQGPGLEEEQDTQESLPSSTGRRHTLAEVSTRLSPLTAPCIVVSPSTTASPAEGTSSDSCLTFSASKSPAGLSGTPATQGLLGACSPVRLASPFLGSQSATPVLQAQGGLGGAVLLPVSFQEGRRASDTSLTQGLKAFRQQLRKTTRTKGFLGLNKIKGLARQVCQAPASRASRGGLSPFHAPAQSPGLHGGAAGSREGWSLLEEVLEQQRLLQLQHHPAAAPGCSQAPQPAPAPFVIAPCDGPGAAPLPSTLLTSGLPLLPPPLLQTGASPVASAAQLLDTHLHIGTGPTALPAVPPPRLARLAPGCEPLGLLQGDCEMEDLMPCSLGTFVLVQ

178 full-length kinases [11] = target: 178 full-length kinases (Homo sapiens, UniProt Q00532); details: CDKL1, Nluc N, probe 1 at 0.1 (unit uncertain)
Sequence of 178 full-length kinases (Homo sapiens, UniProt Q00532) (Q00532 whole entry): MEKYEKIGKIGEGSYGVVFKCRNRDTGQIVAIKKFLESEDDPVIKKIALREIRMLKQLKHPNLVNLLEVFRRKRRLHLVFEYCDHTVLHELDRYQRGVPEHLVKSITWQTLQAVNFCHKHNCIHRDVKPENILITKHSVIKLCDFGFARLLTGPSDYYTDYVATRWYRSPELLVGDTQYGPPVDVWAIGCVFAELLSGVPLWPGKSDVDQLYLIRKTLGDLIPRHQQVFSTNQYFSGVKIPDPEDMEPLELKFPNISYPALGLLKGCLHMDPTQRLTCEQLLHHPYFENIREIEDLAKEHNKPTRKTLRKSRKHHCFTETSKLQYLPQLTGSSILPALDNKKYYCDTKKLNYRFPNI

178 full-length kinases [12] = target: 178 full-length kinases (Homo sapiens, UniProt Q00535); details: CDK5, Nluc C, probe 5 at 1 (unit uncertain)
Sequence of 178 full-length kinases (Homo sapiens, UniProt Q00535) (Q00535 whole entry): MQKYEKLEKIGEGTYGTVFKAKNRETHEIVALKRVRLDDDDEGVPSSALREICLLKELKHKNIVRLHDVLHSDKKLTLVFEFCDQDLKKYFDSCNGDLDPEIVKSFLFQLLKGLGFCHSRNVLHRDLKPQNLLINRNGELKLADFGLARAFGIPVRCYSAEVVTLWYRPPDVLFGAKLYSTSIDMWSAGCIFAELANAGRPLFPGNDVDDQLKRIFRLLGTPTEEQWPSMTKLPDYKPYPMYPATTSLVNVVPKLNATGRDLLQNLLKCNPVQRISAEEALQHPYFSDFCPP

178 full-length kinases [13] = target: 178 full-length kinases (Homo sapiens, UniProt Q02156); details: PRKCE, Nluc C, probe 5 at 1 (unit uncertain)
Sequence of 178 full-length kinases (Homo sapiens, UniProt Q02156) (Q02156 whole entry): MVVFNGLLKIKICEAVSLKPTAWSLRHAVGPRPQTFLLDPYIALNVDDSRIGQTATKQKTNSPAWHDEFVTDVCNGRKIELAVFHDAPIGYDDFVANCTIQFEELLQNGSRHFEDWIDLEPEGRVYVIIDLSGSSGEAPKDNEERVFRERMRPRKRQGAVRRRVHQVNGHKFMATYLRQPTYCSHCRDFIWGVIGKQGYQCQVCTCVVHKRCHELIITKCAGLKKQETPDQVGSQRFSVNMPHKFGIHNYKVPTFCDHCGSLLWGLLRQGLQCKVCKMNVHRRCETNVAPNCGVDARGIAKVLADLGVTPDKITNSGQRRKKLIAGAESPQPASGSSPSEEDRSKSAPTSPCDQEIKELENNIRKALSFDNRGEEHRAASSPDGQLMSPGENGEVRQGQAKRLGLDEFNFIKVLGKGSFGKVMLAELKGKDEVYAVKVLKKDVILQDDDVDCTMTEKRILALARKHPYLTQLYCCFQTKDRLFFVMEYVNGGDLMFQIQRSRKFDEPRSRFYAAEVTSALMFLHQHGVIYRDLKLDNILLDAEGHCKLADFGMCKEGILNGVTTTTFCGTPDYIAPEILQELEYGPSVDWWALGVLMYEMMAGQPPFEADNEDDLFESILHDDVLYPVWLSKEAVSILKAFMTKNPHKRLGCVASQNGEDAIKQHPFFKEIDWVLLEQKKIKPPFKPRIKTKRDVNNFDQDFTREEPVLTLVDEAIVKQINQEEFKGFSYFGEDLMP

178 full-length kinases [14] = target: 178 full-length kinases (Homo sapiens, UniProt Q15349); details: RPS6KA2 (NP_001305865), Nluc orientation N, probe 5 at 0.5 (unit uncertain)
178 full-length kinases [15] = target: 178 full-length kinases (Homo sapiens, UniProt Q8IYT8); details: ULK2 (NP_001136082), Nluc orientation N, probe 5 at 1 (unit uncertain)
178 full-length kinases [16] = target: 178 full-length kinases (Homo sapiens, UniProt Q92772); details: CDKL2, Nluc N, probe 1 at 0.1 (unit uncertain)
178 full-length kinases [17] = target: 178 full-length kinases (Homo sapiens, UniProt Q96PY6); details: NEK1, Nluc N, probe 5 at 1 (unit uncertain)
178 full-length kinases [18] = target: 178 full-length kinases (Homo sapiens, UniProt Q9P286); details: PAK7, Nluc C, probe 5 at 1 (unit uncertain)

Which “Occupancy, % Replicate 1” value (178 full-length kinases [1]) does the source give for `C[C@@H](Oc1cc(-c2cnn(C3CCNCC3)c2)cnc1N)c1c(Cl)ccc(F)c1Cl` [Crizotinib] here?
Its value is “No Binding”.

And the “Occupancy, % Replicate 2” value (178 full-length kinases [1])?
The value was “No Binding”.

And the receptor occupancy (178 full-length kinases [2]; read-out: Occupancy, % Replicate 1)?
Its receptor occupancy is 12%.

What about the receptor occupancy (178 full-length kinases [2]; read-out: Occupancy, % Replicate 2) of the same molecule?
Its receptor occupancy is 12%.

And the “Occupancy, % Replicate 1” value (178 full-length kinases [3])?
Its value is “No Binding”.

What about the “Occupancy, % Replicate 1” value (178 full-length kinases [4]) of the same molecule?
The value was “No Binding”.

And the “Occupancy, % Replicate 2” value (178 full-length kinases [4])?
The value was “No Binding”.

What about the “Occupancy, % Replicate 2” value (178 full-length kinases [5]) of the same molecule?
Its value is “No Binding”.

And the “Occupancy, % Replicate 1” value (178 full-length kinases [6])?
The value was “No Binding”.

What about the “Occupancy, % Replicate 2” value (178 full-length kinases [6]) of the same molecule?
The value was “No Binding”.

What about the “Occupancy, % Replicate 1” value (178 full-length kinases [7]) of the same molecule?
Its value is “No Binding”.

What about the “Occupancy, % Replicate 2” value (178 full-length kinases [8]) of the same molecule?
The value was “No Binding”.

And the “Occupancy, % Replicate 1” value (178 full-length kinases [9])?
Its value is “No Binding”.

What about the “Occupancy, % Replicate 2” value (178 full-length kinases [9]) of the same molecule?
Its value is “No Binding”.

And the “Occupancy, % Replicate 1” value (178 full-length kinases [10]; replicate 1)?
The value was “No Binding”.

What about the “Occupancy, % Replicate 2” value (178 full-length kinases [10]; replicate 2) of the same molecule?
The value was “No Binding”.

What about the “Occupancy, % Replicate 1” value (178 full-length kinases [11]) of the same molecule?
Its value is “No Binding”.

What about the “Occupancy, % Replicate 2” value (178 full-length kinases [11]) of the same molecule?
The value was “No Binding”.

What about the “Occupancy, % Replicate 1” value (178 full-length kinases [12]) of the same molecule?
The value was “No Binding”.

What about the “Occupancy, % Replicate 2” value (178 full-length kinases [12]) of the same molecule?
The value was “No Binding”.

And the “Occupancy, % Replicate 1” value (178 full-length kinases [13])?
The value was “No Binding”.

What about the “Occupancy, % Replicate 2” value (178 full-length kinases [13]) of the same molecule?
Its value is “No Binding”.

What about the “Occupancy, % Replicate 1” value (178 full-length kinases [14]; replicate 1) of the same molecule?
Its value is “No Binding”.

What about the “Occupancy, % Replicate 2” value (178 full-length kinases [14]; replicate 2) of the same molecule?
Its value is “No Binding”.

And the “Occupancy, % Replicate 1” value (178 full-length kinases [15]; replicate 1)?
Its value is “No Binding”.

What about the “Occupancy, % Replicate 2” value (178 full-length kinases [15]; replicate 2) of the same molecule?
Its value is “No Binding”.

And the “Occupancy, % Replicate 1” value (178 full-length kinases [16])?
The value was “No Binding”.

What about the “Occupancy, % Replicate 2” value (178 full-length kinases [16]) of the same molecule?
The value was “No Binding”.

And the “Occupancy, % Replicate 2” value (178 full-length kinases [17])?
Its value is “No Binding”.

And the “Occupancy, % Replicate 1” value (178 full-length kinases [18])?
The value was “No Binding”.

And the “Occupancy, % Replicate 2” value (178 full-length kinases [18])?
Its value is “No Binding”.
